These results are taken from patent EP0977755B1, “HETEROCYCLIC COMPOUNDS AND THEIR PREPARATION AND USE” (NOVO NORDISK A/S, priority 1997, dated 1998).

The target of this assay is T1, m1 muscarinic receptor (Rattus norvegicus, UniProt P08482).
T1 construct: expressed in transfected cells; host or cells: A9 L cells (mouse fibroblast line)
T1 sequence (P08482 1-460): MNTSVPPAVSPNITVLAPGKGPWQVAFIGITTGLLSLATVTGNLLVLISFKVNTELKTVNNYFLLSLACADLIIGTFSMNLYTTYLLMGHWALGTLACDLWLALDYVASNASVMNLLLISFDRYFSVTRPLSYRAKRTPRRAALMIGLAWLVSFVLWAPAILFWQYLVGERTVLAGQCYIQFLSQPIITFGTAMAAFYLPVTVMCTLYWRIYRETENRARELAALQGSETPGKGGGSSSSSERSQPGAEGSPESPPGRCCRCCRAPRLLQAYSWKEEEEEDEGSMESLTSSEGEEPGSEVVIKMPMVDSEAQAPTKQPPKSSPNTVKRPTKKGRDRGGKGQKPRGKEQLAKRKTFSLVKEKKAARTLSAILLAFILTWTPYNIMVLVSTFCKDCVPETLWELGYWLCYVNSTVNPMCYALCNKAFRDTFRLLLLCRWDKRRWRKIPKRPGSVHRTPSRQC
As to the kind of experiment: IP hydrolysis in A9 L cells cloned with the genetic m1 muscarinic receptor. It is filed as cell-based, human and rat. Particulars: for pEC50 / EC50: IP hydrolysis, seven point curves, three separate experiments; for pEC50: read-out: EC50; for EC50: EC50, nM; for Emax: A9L-m1, 0.75 h, read-out: % PI (efficacy).

Where [1] appears, read: percentage of total [3H]IP accumulated in the presence of 100 µM carbachol stimulation, 37°C for 45 min.

pEC50: −log10 of the molar value. Counter-ions that a name gives are not always drawn. Like-named read-outs stand apart in the source and are kept apart here.

Description: IP hydrolysis in A9 L cells cloned with the genetic m, muscarinic receptor: A9 L cells transfected with human and rat m, muscarinic receptors (Dörje et al., 1991; Jones et al., 1988), were cultured to confluence in 75-ml flasks containing Dulbecco's modified essential media. Cells were prelabeled with 1 µCi/ml of myo(2-[^3H]inositol (Amersham Inc., 16.3 Ci/mmol) for 48 hr before assaying. On the day of assay, cells were detached using a 30-sec exposure to 0.25% trypsin in 1 mM EDTA. The cells were collected by centrifugation (300 x g for 5 min) and resuspended in oxygenated HEPES buffer containing 10 mM LiCl (NaCl 142 mM, KCl 5.6 mM, CaCl2 2.2 mM, MgCl2 1 mM, NaHCO3 3.6 mM, D-glucose 5.6 mM and Na^+ HEPES 30 mM, pH 7.4). Cells were incubated at 37°C for 45 min in the presence of varying concentrations of test compounds. Total IP hydrolysis was determined using the method of Schoepp and Johnson (1988). […] Half-maximal (EC50) values were determined from the mean (±S.D.) of seven point curves determined from three separate experiments.

For `C(#Cc1ccsc1)COc1nsnc1[C@@H]1CN2CCC[C@H]1C2.O=C(O)C(O)C(O)C(=O)O` [Compound 30, Endo (5R,6S)-6-(3-[3-(3-Thienyl)-2-propyn-1-yloxy]-1,2,5-thiadiazol-4-yl)-1-azabicyclo[3.2.1]octane, (+)-tartrate], the pEC50 is 7.70. For the same compound, the “% PI (efficacy)” value under setting [1] is on record as 82%.
Consider `C(#Cc1cccnc1)COc1nsnc1[C@@H]1CN2CCC[C@H]1C2` [Compound 31, Endo (5R,6S)-6-(3-[3-(3-Pyridyl)-2-propyn-1-yloxy]-1,2,5-thiadiazol-4-yl)-1-azabicyclo[3.2.1]octane, (+)-tartrate], for which it took 26 nM to reach a half-maximal effect (EC50).
`C(#Cc1ccccc1)CSc1nsnc1[C@H]1C[N@@]2CCC[C@H]1C2` [Compound 39, Exo (5R,6R)-6-(3-(3-Phenyl-2-propyn-1-ylthio)-1,2,5-thiadiazol-4-yl)-1-azabicyclo[3.2.1]octane. (+)-tartrate]: the pEC50 is 9.70. Further, the Emax under setting [1] was 105%.
On the same counts, the results for `C(#Cc1ccccc1)COc1nsnc1[C@H]1C[N@@]2CCC[C@H]1C2` [Compound 40, Exo (5R,6R)-6-(3-(3-Phenyl-2-propyn-1-yloxy)-1,2,5-thiadiazol-4-yl)-1-azabicyclo[3.2.1]octane, oxalate] are 9.30 and 102%.
On the same counts, the results for `COc1cccc(C#CCOc2nsnc2[C@H]2CN3CCC[C@H]2C3)c1` [Compound 41, Exo (5R,6R)-6-(3-(3-(3-Methoxyphenyl)-2-propyn-1-yfoxy)-1,2,5-thiadiazol-4-yl)-1-azabicyclo[3.2.1]octane, oxalate] are 8.70 and 100%.
Turning to `FC(F)(F)c1cccc(C#CCOc2nsnc2[C@H]2CN3CCC[C@H]2C3)c1` [Compound 42, Exo (5R,6R)-6-(3-(3-(3-Trifluoromethylphenyl)-2-propyn-1-yloxy)-1,2,5-thiadiazol-4-yl)-1-azabicyclo[3.2.1]octane, (+)-tartrate], the pEC50 was 7.92. Besides, the Emax under setting [1] was found to be 99%.
Turning to `COc1cccc(C#CC(C)Oc2nsnc2[C@H]2CN3CCC[C@H]2C3)c1` (stereo partly drawn) [Compound 43, Exo (5R,6R)-6-(3-(3-(3-Methoxyphenyl)-1-methyl-2-propyn-1-yloxy)-1,2,5-thiadiazol-4-yl)-1-azabicyclo[3.2.1]octane, (+)-tartrate], the pEC50 was 8.05. Further, under setting [1], the Emax came to 85%.
With `Clc1ccc(C#CCOc2nsnc2[C@H]2CN3CCC[C@H]2C3)cc1` [Compound 44, Exo (5R,6R)-6-(3-(3-(4-Chlorophenyl)-2-propyn-1-yloxy)-1,2,5-thiadiazol-4-yl)-1-azabicyclo[3.2.1]octane, (+)-tartrate], the pEC50 is 7.49. Also, the Emax under setting [1] came out at 81%.
For `COc1cccc(C#CC(Oc2nsnc2[C@H]2CN3CCC[C@H]2C3)C(C)C)c1` (stereo partly drawn) [Compound 45, Exo (5R,6R)-6-(3-(1-(3-Methoxyphenyl)-4-methyl-1-pentyn-3-yloxy)-1,2,5-thiadiazol-4-yl)-1-azabicyclo[3 2.1]octane, (+)-tartrate], the pEC50 was 8.10. Moreover, the Emax under setting [1] came out at 66%.
In the same order, the values of `CC(C#Cc1cccs1)Oc1nsnc1[C@H]1CN2CCC[C@H]1C2` (stereo partly drawn) [Compound 47, Exo (5R,6R)-6-(3-(3-(2-Thienyl)-1-methyl-2-propyn-1-yloxy)-1,2,5-thiadiazol-4-yl)-1-azabicyclo[3.2.1]octane, (+)-tartrate] are 6.99 and 102%.
On the same counts, the results for `CC(C#Cc1ccsc1)Oc1nsnc1[C@H]1CN2CCC[C@H]1C2` (stereo partly drawn) [Compound 48, Exo (5R,6R)-6-(3-(3-(3-Thienyl)-1-methyl-2-propyn-1-yloxy)-1,2,5-thiadiazol-4-yl)-1-azabicyclo[3.2.1]octane, (+)-tartrate] are 8.15 and 96%.
Turning to `C(#Cc1cccs1)COc1nsnc1[C@H]1CN2CCC[C@H]1C2` [Compound 49, Exo (5R,6R)-6-(3-[3-(2-Thienyl)-2-propyn-1-yloxy]-1,2,5-thiadiazol-4-yl)-1-azabicyclo[3 2 1]octane, oxalate], the pEC50 is 9.15. Besides, the Emax under setting [1] turned out to be 100%.
Regarding `C(#Cc1ccsc1)COc1nsnc1[C@H]1CN2CCC[C@H]1C2` [Compound 50, Exo (5R,6R)-6-(3-[3-(3-Thienyl)-2-propyn-1-yloxy]-1,2,5-thiadiazol-4-yl)-1-azabicyclo[3.2.1]octane, oxalate], the pEC50 is 8.70. For the same compound, the Emax under setting [1] came to 101%.
Take `O=C1CCCN1CC#CCN1CCCC1` [oxotremorine, reference compound]: a half-maximal effect (EC50) was put at 16300 nM.

As a reminder, the pEC50 is the negative decadic logarithm of the EC50, by convention in mol/L. By EC50 is commonly meant the concentration needed to bring the measured effect to its halfway point.
